# Measured values: patent publication US9410958B2, “Alkyne-activated fluorogenic azide compounds and methods of use thereof” (The Regents of the University of California, priority 2014, dated 2016)
# Entries after “also recorded” stand apart in the source; their conditions may differ. Like-named read-outs stand apart in the source and are kept apart here. Marks after values point to notes of the source that are not given here.
# What was measured:
# [1] = data from Shieh et al. 2014; cited from earlier work
# [2] = Photophysical properties and fluorescence quantum yields of Si-rhodamines in PBS pH 7.4; format: physicochemical; conditions: for Φfl: cresyl violet in methanol as standard
# Description: The fluorescence quantum yields of the purified amino, azido, and triazolyl Si-rhodamines were measured in pH 7.4 phosphate buffered saline (PBS) using cresyl violet in methanol (Φfl=0.54) as a standard (Table 1). […] The best candidate of the four, 8-azidonaphthyl-substituted Si-rhodamine 1, afforded only a 5-fold increase in fluorescence quantum yield as compared with the 29-fold enhancement observed with the corresponding fluorescein.
# Fluorescence quantum yields were measured by creating 2 mM stocks of dyes in MeOH. The dyes were then diluted to 20 μM in PBS, then further diluted in PBS to various final concentrations. The absorbance and emission spectra of five different concentrations of dye were measured while keeping maximum absorbance under 0.2. Solutions of probe were excited at 600 nm, and emission was integrated from 600 to 800 nm. Plotting integrated emission vs. absorbance at 600 nm yielded a line, whose slope corresponds to the fluorescence quantum yield. Absolute quantum yields were determined by comparison with the slope of the line measured for cresyl violet in MeOH (Φfl=0.54). The reported quantum yields are the average of three sets of measurements. Absorbance spectra were recorded on a Varian Cary 50 UV-Visible spectrophotometer. Fluorescence spectra were recorded on a Photon Technology International Quanta Master 4 L-format scanning spectrofluorometer equipped with an LPS-220B 75-W xenon lamp and power supply, A-1010B lamp housing with an integrated igniter, switchable 814 photon counting/analog photomultiplier detection unit, and MD5020 motor driver. Measurements were made in 1 cm×0.4 cm quartz cuvettes with a total sample volume of 1 mL.
# CHO K1 cells = assay: No-wash cell surface labeling of SiaNAl residues, CHO K1; format: cell-based
# Description: Si-rhodamine 10 was evaluated as a reagent for imaging SiaNAl residues on live cell surfaces. CHO K1 cells were incubated with 50 μM Ac4ManNAl for 3 days, washed, and then incubated with 5 μM 10, 50 μM CuSO4, 300 μM BTTAA, and 1 mM sodium ascorbate. […] Cell-surface glycan labeling was visualized as it occurred in real time (FIG. 14). Background labeling was minimal on control cells treated with N-acetylmannosamine (Ac4ManNAc) (FIG. 13).
# HEK 293T cells = assay: No-wash live cell surface labeling and mitochondrial co-staining, HEK 293T; conditions: HEK 293T
# Description: Cells were grown in 8-well Lab-Tek Chambered Coverglass systems in media (HAM-F12 for CHO K1 cells, DMEM for HEK 293T cells) containing 10% fetal bovine serum, penicillin/streptomycin, and either 50 μM Ac4ManNAl or Ac4ManNAc for 3 d at 37° C., as described previously. The cells were then washed with 3×300 μL PBS, then incubated with 100 μL freshly prepared click solution. Click solution comprised of 50 μM CuSO4, 300 μM BTTAA, 2.5 mM sodium ascorbate, and 5 μM azido Si-rhodamine. This was prepared by first adding 0.5 μL 50 mM CuSO4 in H2O and 3 μL 50 mM BTTAA in H2O to 481.5 μL PBS. Next, 12.5 μL freshly prepared 100 mM sodium ascorbate in PBS was added. Finally, 2.5 μL 1 mM azido Si-rhodamine in 4:1 PBS/MeOH was added. After 15 min, the reactions were quenched with the addition of 1 μL of 100 mM bathocuproine disulfonate (BCS) in H2O (final concentration 1 mM). […] For real-time imaging, images were acquired as the labeling progressed without quenching the reaction.
# HEK 293T cells were grown in a LabTek 8-well chambered glass slide in DMEM containing fetal bovine serum, penicillin/streptomycin for 3 d at 37° C. The cells were then incubated with 100 nM MitoTracker Green FM and 1 μg/mL Hoechst 33342 in fresh media for 30 min at 37° C., then media removed and the cells incubated with 100 μL PBS containing 5 μM 10. The cells were then directly imaged.
# The CalFluors' performance in no-wash cell imaging experiments was evaluated. Using established methods, cell-surface glycoconjugates were metabolically labeled with peracetylated N-pentynoyl mannosamine (Ac4ManNAl), which introduces terminal alkyne groups into sialic acid residues (SiaNAl). HEK 293T cells treated in this fashion were then incubated, without fixation, with a cocktail containing 50 μM CuSO4, 300 μM BTTAA, 5 mM sodium ascorbate and 10 μM CalFluor dye.
# Cells were grown with 50 μM Ac4ManNAl or Ac4ManNAc for 3 days, then subjected to click labeling with CalFluor probes. (A) Labeling glycoproteins on live cell surfaces. Cells were treated with 10 μM azide probe, 50 μM CuSO4, 300 μM BTTAA ligand, and 5 mM sodium ascorbate. The reaction was quenched with 1 mM BCS and the cells imaged without further wash steps. (B) Labeling glycoproteins on fixed cells. Cells were fixed with 3% paraformaldehyde, then treated with 10 μM CalFluor probe, 1 mM CuSO4, 100 μM TBTA ligand, and 2 mM sodium ascorbate. 0.1 mg/mL BSA was added to prevent the TBTA from precipitating over the course of the reaction.
# [3] = system: wild-type L. monocytogenes; assay: D-alanine competition experiment; conditions: 5 mM cyclooctyne amino acid, 0 or 20 mM D-alanine
# Description: The bacteria were incubated with 5 mM cyclooctyne amino acid, in the presence of either 0 or 20 mM D-alanine, and labeled following the general procedure.
# Bacteria were grown to an optical density (OD) of 0.4 in their respective media (7H9 for M. smegmatis, LB for C. glutamicum, BHI for L. monocytogenes) at 37° C. (M. smegmatis and L. monocytogenes) or 30° C. (C. glutamicum). Then, 5 mM D-amino acid was added (from a 1 M stock in H2O, 1 eq. NaOH was added to help solubilize compounds 12, 13, and 14) and the cells grown for one doubling time. The bacteria were then added to a 96-well V-bottom plate at 200 μL/well and pelleted by centrifugation at 3500 rpm for 3 min. The supernatant was removed and the cells resuspended in 200 μL PBS and pelleted again. This wash process was repeated twice more. The cells were then incubated with 100 μL of 20 μM azido-PEG3-carboxyrhodamine 110 (Click Chemistry Tools) in PBS (made by diluting a 1 mM stock in 9:1 PBS/DMSO) and placed in a 37° C. shaker for 1 h. Alternatively, for alkDala, labeling was performed by incubation with 100 μL of 20 μM azido-PEG3-carboxyrhodamine 110, 128 μM TBTA, 1 mM CuSO4, and 1.2 mM sodium ascorbate in PBS in a 37° C. shaker for 1 h. The cells were washed three times, then fixed with 4% paraformaldehyde for 10 min at rt. The cells were washed another three times, then studied by flow cytometry and microscopy.
# [4] = decrease (↓), amine relative to the azide
# [5] = increase (↑), triazole relative to the azide
structure (smiles),measurement,setting,value
COc1cc(OC)c(-n2cc(CCC(=O)NCCO)nn2)cc1C1=C2C=CC(=[N+](C)C)C=C2[Si](C)(C)c2cc(N(C)C)ccc21 [2 triazole],Enhancement,[1],48x^a
same,Φfl,[1],0.20^a
same,λem,[1],668 nm^a
same,λmax,[1],665 nm^a
CN(C)c1ccc2c(c1)[Si](C)(C)C1=CC(=[N+](C)C)C=CC1=C2c1ccc(N)c2ccccc12 [Compound 1-NH2],λabs,[2],653 nm
same,λem,[2],669 nm
same,Φfl,[2],0.0016
same,Change in Φfl,[2]; [4],24-fold ↓
CN(C)c1ccc2c(c1)[Si](C)(C)C1=CC(=[N+](C)C)C=CC1=C2c1ccc(-n2cc(CCC(=O)NCCO)nn2)c2ccccc12 [Compound 1-triazole],λabs,[2],656 nm
same,λem,[2],670 nm
same,Φfl,[2],0.19
same,Change in Φfl,[2]; [5],5.0-fold ↑
COc1ccc(N=[N+]=[N-])cc1C1=C2C=CC(=[N+](C)C)C=C2[Si](C)(C)c2cc(N(C)C)ccc21 [Compound 2-N3],λabs,[2],653 nm
same,λem,[2],667 nm
same,Φfl,[2],0.081
COc1ccc(N)cc1C1=C2C=CC(=[N+](C)C)C=C2[Si](C)(C)c2cc(N(C)C)ccc21 [Compound 2-NH2],λabs,[2],650 nm
same,λem,[2],669 nm
same,Φfl,[2],0.0025
same,Change in Φfl,[2]; [4],32-fold ↓
COc1ccc(-n2cc(CCC(=O)NCCO)nn2)cc1C1=C2C=CC(=[N+](C)C)C=C2[Si](C)(C)c2cc(N(C)C)ccc21 [Compound 2-triazole],λabs,[2],655 nm
same,λem,[2],669 nm
same,Φfl,[2],0.19
same,Change in Φfl,[2]; [5],2.3-fold ↑
CN(C)c1ccc2c(c1)[Si](C)(C)C1=CC(=[N+](C)C)C=CC1=C2c1cc(N=[N+]=[N-])ccc1N1CCOCC1 [Compound 3-N3],λabs,[2],656 nm
same,λem,[2],667 nm
same,Φfl,[2],0.0014
CN(C)c1ccc2c(c1)[Si](C)(C)C1=CC(=[N+](C)C)C=CC1=C2c1cc(N)ccc1N1CCOCC1 [Compound 3-NH2],λabs,[2],650 nm
same,λem,[2],672 nm
same,Φfl,[2],0.00096
same,Change in Φfl,[2]; [4],1.4-fold ↓
CN(C)c1ccc2c(c1)[Si](C)(C)C1=CC(=[N+](C)C)C=CC1=C2c1cc(-n2cc(CCC(=O)NCCO)nn2)ccc1N1CCOCC1 [Compound 3-triazole],λabs,[2],663 nm
same,λem,[2],676 nm
same,Φfl,[2],0.0015
same,Change in Φfl,[2]; [5],1.1-fold ↑
CN(C)c1ccc2c(c1)[Si](C)(C)C1=CC(=[N+](C)C)C=CC1=C2c1cc(N=[N+]=[N-])cc2[nH]ccc12 [Compound 4-N3],λabs,[2],660 nm
same,λem,[2],669 nm
same,Φfl,[2],0.0048
CN(C)c1ccc2c(c1)[Si](C)(C)C1=CC(=[N+](C)C)C=CC1=C2c1cc(N)cc2[nH]ccc12 [Compound 4-NH2],λabs,[2],650 nm
same,λem,[2],673 nm
same,Φfl,[2],0.00088
same,Change in Φfl,[2]; [4],5.5-fold ↓
CN(C)c1ccc2c(c1)[Si](C)(C)C1=CC(=[N+](C)C)C=CC1=C2c1cc(-n2cc(CCC(=O)NCCO)nn2)cc2[nH]ccc12 [Compound 4-triazole],λabs,[2],654 nm
same,λem,[2],668 nm
same,Φfl,[2],0.0088
same,Change in Φfl,[2]; [5],1.8-fold ↑
CN(C)c1ccc2c(c1)[Si](C)(C)C1=CC(=[N+](C)C)C=CC1=C2c1cc(N=[N+]=[N-])cc2c1OCCO2 [Compound 5-N3],λabs,[2],655 nm
same,λem,[2],668 nm
same,Φfl,[2],0.019
CN(C)c1ccc2c(c1)[Si](C)(C)C1=CC(=[N+](C)C)C=CC1=C2c1cc(N)cc2c1OCCO2 [Compound 5-NH2],λabs,[2],653 nm
same,λem,[2],667 nm
same,Φfl,[2],0.00093
same,Change in Φfl,[2]; [4],21-fold ↓
CN(C)c1ccc2c(c1)[Si](C)(C)C1=CC(=[N+](C)C)C=CC1=C2c1cc(-n2cc(CCC(=O)NCCO)nn2)cc2c1OCCO2 [Compound 5-triazole],λabs,[2],656 nm
same,λem,[2],668 nm
same,Φfl,[2],0.18
same,Change in Φfl,[2]; [5],9.5-fold ↑
COc1cc(N=[N+]=[N-])cc(C2=C3C=CC(=[N+](C)C)C=C3[Si](C)(C)c3cc(N(C)C)ccc32)c1OC [Compound 6-N3],λabs,[2],654 nm
same,λem,[2],669 nm
same,Φfl,[2],0.039
COc1cc(N)cc(C2=C3C=CC(=[N+](C)C)C=C3[Si](C)(C)c3cc(N(C)C)ccc32)c1OC [Compound 6-NH2],λabs,[2],652 nm
same,λem,[2],665 nm
same,Φfl,[2],0.00067
same,Change in Φfl,[2]; [4],58-fold ↓
COc1cc(-n2cc(CCC(=O)NCCO)nn2)cc(C2=C3C=CC(=[N+](C)C)C=C3[Si](C)(C)c3cc(N(C)C)ccc32)c1OC [Compound 6-triazole],λabs,[2],656 nm
same,λem,[2],670 nm
same,Φfl,[2],0.18
same,Change in Φfl,[2]; [5],4.6-fold ↑
COc1cc(C)c(C2=C3C=CC(=[N+](C)C)C=C3[Si](C)(C)c3cc(N(C)C)ccc32)cc1N=[N+]=[N-] [Compound 7-N3],λabs,[2],650 nm
same,λem,[2],666 nm
same,Φfl,[2],0.066
COc1cc(C)c(C2=C3C=CC(=[N+](C)C)C=C3[Si](C)(C)c3cc(N(C)C)ccc32)cc1N [Compound 7-NH2],λabs,[2],648 nm
same,λem,[2],669 nm
same,Φfl,[2],0.0015
same,Change in Φfl,[2]; [4],45-fold ↓
COc1cc(C)c(C2=C3C=CC(=[N+](C)C)C=C3[Si](C)(C)c3cc(N(C)C)ccc32)cc1-n1cc(CCC(=O)NCCO)nn1 [Compound 7-triazole],λabs,[2],652 nm
same,λem,[2],666 nm
same,Φfl,[2],0.25
same,Change in Φfl,[2]; [5],3.7-fold ↑
COc1cc(N=[N+]=[N-])c(OC)c(C2=C3C=CC(=[N+](C)C)C=C3[Si](C)(C)c3cc(N(C)C)ccc32)c1 [Compound 8-N3],λabs,[2],655 nm
same,λem,[2],669 nm
same,Φfl,[2],0.051
COc1cc(N)c(OC)c(C2=C3C=CC(=[N+](C)C)C=C3[Si](C)(C)c3cc(N(C)C)ccc32)c1 [Compound 8-NH2],λabs,[2],654 nm
same,λem,[2],672 nm
same,Φfl,[2],0.0012
same,Change in Φfl,[2]; [4],41-fold ↓
COc1cc(C2=C3C=CC(=[N+](C)C)C=C3[Si](C)(C)c3cc(N(C)C)ccc32)c(OC)c(-n2cc(CCC(=O)NCCO)nn2)c1 [Compound 8-triazole],λabs,[2],657 nm
same,λem,[2],671 nm
same,Φfl,[2],0.16
same,Change in Φfl,[2]; [5],3.2-fold ↑
COc1cc(OC)c(C2=C3C=CC(=[N+](C)C)C=C3[Si](C)(C)c3cc(N(C)C)ccc32)cc1N [Compound 9-NH2],λabs,[2],650 nm
same,λem,[2],664 nm
same,Φfl,[2],0.0014
same,Change in Φfl,[2]; [4],3.0-fold ↓
COc1cc(OC)c(-n2cc(CCC(=O)NCCO)nn2)cc1C1=C2C=CC(=[N+](C)C)C=C2[Si](C)(C)c2cc(N(C)C)ccc21 [Compound 9-triazole],λabs,[2],655 nm
same,λem,[2],668 nm
same,Φfl,[2],0.20
same,Change in Φfl,[2]; [5],48-fold ↑
COCCOCCOCCOc1cc(OCCOCCOCCOC)c(C2=C3C=CC(=[N+](C)C)C=C3[Si](C)(C)c3cc(N(C)C)ccc32)cc1N=[N+]=[N-] [Compound 10],cell-surface labeling,"CHO K1 cells; Ac4ManNAl-treated CHO K1, no wash, 15 min",robust cell-surface labeling
same,background labeling,"CHO K1 cells; CHO K1, control or unwanted labeling",minimal
same,"background, intracellular or mitochondrial labeling",HEK 293T cells,mitochondrial staining; also recorded: punctate fluorescence appeared within the cells almost immediately
NC(CNC(=O)OC1C#CCCCCC1)C(=O)O (stereo not drawn) [Compound 12],effect of excess D-alanine on labeling,[3],excess D-alanine decreases the fluorescence intensity
NC(CNC(=O)OC[C@H]1[C@@H]2CCC#CCC[C@@H]21)C(=O)O (stereo partly drawn) [Compound 13],effect of excess D-alanine on labeling,[3],excess D-alanine decreases the fluorescence intensity
